# Test system: individuals (patients with severe marginal periodontitis, healthy control individuals)
# Experiment: Skin Prick Test with Lipid A
# Format: in vivo, human
# Conditions: for % + with 0.1 mg Lipid A / % + with 1 mg Lipid A: result registered after 18 to 24 hours
# Description: Skin Prick Test with Lipid A was performed on three groups of individuals:
# Patients with severe marginal periodontitis which responds to treatment.
# Healthy control individuals without marginal periodontitis.
# (The test was performed according to a routine procedure as described in Aas K, Backman A, Berlin L, Weeke B. Standardization of allergen extracts with appropriate methods. The combined use of skin prick testing and standardization of allergen extracts. Acta Allergol 1978; 33:238-240, and in Malling H-J. The skin prick testing and the use of histamine references. Allergy 1984; 39:596-601).
# Patient and disease characteristics for the three groups can be found in Table 1 below. GI (gingival index) was used as measure of active disease. […] The test substance was Lipid A dissolved in water (0.1 mg/ml and 1 mg/ml). Histamine (10 mg/ml in water) and water served as positive and negative controls, respectively. The result was registered after 18 to 24 hours.
# Students t-test was employed to test levels of significance for differences between test and control groups.
# [1] = healthy control individuals without marginal periodontitis, n=16
# [2] = patients with severe marginal periodontitis which responds to treatment (GI ≦ 20), n=38
# [3] = refractory patients: severe marginal periodontitis not responding to treatment (GI > 20), n=14
Compound,"skin prick reaction (positive/negative) (all individuals of the three groups, histamine 10 mg/ml in water, positive control)",% + with 0.1 mg Lipid A [1],% + with 1 mg Lipid A [1],% + with 0.1 mg Lipid A [2],% + with 1 mg Lipid A [2],response to Lipid A in skin prick test (in words) (refractory patients (severe marginal periodontitis not responding to treatment)),% + with 0.1 mg Lipid A [3],% + with 1 mg Lipid A [3]
NCCc1c[nH]cn1 [histamine],reacted positively,,,,,,,
Lipid A,,18.8%,50.0%,21.1%,57.9%,almost no positive response,7.1%,7.1%
